Data on 8 molecules can be found in PMC8699473, “An Easily Expandable Multi-Drug LC-MS Assay for the Simultaneous Quantification of 57 Oral Antitumor Drugs in Human Plasma” (Cancers, 2021).

This series can be described thus: Autosampler stability of ready for injection samples. It counts as physicochemical, human.

Structures are written as SMILES.

As for `C[C@H]1Oc2cc(cnc2N)-c2c(nn(C)c2C#N)CN(C)C(=O)c2ccc(F)cc21` [Lorlatinib], the “Autosampler (24h, 4°C) Accuracy [%]” value came to 101.6% (validation standard 2xLLOV), 96.7% (validation standard LLOV), 102.0% (validation standard MOV) and 99.7% (validation standard ULOV). Besides, the “Autosampler (72h, 4°C) Accuracy [%]” value runs as follows: (validation standard 2xLLOV) 99.0%; (validation standard LLOV) 94.8%; (validation standard MOV) 100.8%; (validation standard ULOV) 99.2%.
As to `Cc1cn(-c2cc(NC(=O)c3ccc(C)c(Nc4nccc(-c5cccnc5)n4)c3)cc(C(F)(F)F)c2)cn1` [Nilotinib], the “Autosampler (24h, 4°C) Accuracy [%]” value runs as follows: (validation standard 2xLLOV) 97.8%; (validation standard LLOV) 88.1%; (validation standard MOV) 102.7%; (validation standard ULOV) 100.3%. The “Autosampler (72h, 4°C) Accuracy [%]” value is given as 101.2% (validation standard 2xLLOV), 92.6% (validation standard LLOV), 104.0% (validation standard MOV) and 102.0% (validation standard ULOV).
As for `COC(=O)c1ccc2c(c1)NC(=O)/C2=C(\Nc1ccc(N(C)C(=O)CN2CCN(C)CC2)cc1)c1ccccc1` [Nintedanib], the “Autosampler (24h, 4°C) Accuracy [%]” value came to 104.2% (validation standard 2xLLOV), 91.3% (validation standard LLOV), 102.7% (validation standard MOV) and 102.7% (validation standard ULOV). In addition, the “Autosampler (72h, 4°C) Accuracy [%]” value by setting is: (validation standard 2xLLOV) 104.4%; (validation standard LLOV) 99.8%; (validation standard MOV) 104.6%; (validation standard ULOV) 101.4%.
For `NC(=O)c1cccc2cn(-c3ccc([C@@H]4CCCNC4)cc3)nc12` [Niraparib], the “Autosampler (24h, 4°C) Accuracy [%]” value (validation standard 2xLLOV) is given as 103.0%; the “Autosampler (24h, 4°C) Accuracy [%]” value (validation standard LLOV) is 96.8%; the “Autosampler (24h, 4°C) Accuracy [%]” value (validation standard MOV) is listed as 104.6%; the “Autosampler (24h, 4°C) Accuracy [%]” value (validation standard ULOV) amounted to 100.8%. The “Autosampler (72h, 4°C) Accuracy [%]” value is recorded as 99.6% (validation standard 2xLLOV), 96.3% (validation standard LLOV), 100.5% (validation standard MOV) and 100.1% (validation standard ULOV).
Consider `O=C(c1cc(Cc2n[nH]c(=O)c3ccccc23)ccc1F)N1CCN(C(=O)C2CC2)CC1` [Olaparib], for which the “Autosampler (24h, 4°C) Accuracy [%]” value is, setting by setting: (validation standard 2xLLOV) 103.8%; (validation standard LLOV) 111.6%; (validation standard MOV) 100.5%; (validation standard ULOV) 103.8%. In addition, the “Autosampler (72h, 4°C) Accuracy [%]” value by setting is: (validation standard 2xLLOV) 100.5%; (validation standard LLOV) 111.2%; (validation standard MOV) 98.0%; (validation standard ULOV) 100.5%.
For `C=CC(=O)Nc1cc(Nc2nccc(-c3cn(C)c4ccccc34)n2)c(OC)cc1N(C)CCN(C)C` [Osimertinib], the “Autosampler (24h, 4°C) Accuracy [%]” value (validation standard 2xLLOV) turned out to be 104.2%; the “Autosampler (24h, 4°C) Accuracy [%]” value (validation standard LLOV) is 90.3%; the “Autosampler (24h, 4°C) Accuracy [%]” value (validation standard MOV) was 103.8%; the “Autosampler (24h, 4°C) Accuracy [%]” value (validation standard ULOV) is 98.4%. Also, the “Autosampler (72h, 4°C) Accuracy [%]” value (validation standard 2xLLOV) stood at 99.1%; the “Autosampler (72h, 4°C) Accuracy [%]” value (validation standard LLOV) stood at 91.2%; the “Autosampler (72h, 4°C) Accuracy [%]” value (validation standard MOV) is recorded as 100.3%; the “Autosampler (72h, 4°C) Accuracy [%]” value (validation standard ULOV) stood at 99.1%.
`Cc1[nH]c2ccccc2c1CCNCc1ccc(/C=C/C(=O)NO)cc1` [Panobinostat]: the “Autosampler (24h, 4°C) Accuracy [%]” value (validation standard 2xLLOV) is on record as 100.3%; the “Autosampler (24h, 4°C) Accuracy [%]” value (validation standard LLOV) turned out to be 83.8%; the “Autosampler (24h, 4°C) Accuracy [%]” value (validation standard MOV) was determined as 102.4%; the “Autosampler (24h, 4°C) Accuracy [%]” value (validation standard ULOV) was found to be 95.4%. Moreover, the “Autosampler (72h, 4°C) Accuracy [%]” value (validation standard 2xLLOV) turned out to be 95.4%; the “Autosampler (72h, 4°C) Accuracy [%]” value (validation standard LLOV) stood at 73.7%; the “Autosampler (72h, 4°C) Accuracy [%]” value (validation standard MOV) was 101.0%; the “Autosampler (72h, 4°C) Accuracy [%]” value (validation standard ULOV) is reported as 101.1%.
Turning to `Cc1ccc(Nc2nccc(N(C)c3ccc4c(C)n(C)nc4c3)n2)cc1S(N)(=O)=O` [Pazopanib], the “Autosampler (24h, 4°C) Accuracy [%]” value (validation standard 2xLLOV) came to 103.7%; the “Autosampler (24h, 4°C) Accuracy [%]” value (validation standard LLOV) was found to be 101.3%; the “Autosampler (24h, 4°C) Accuracy [%]” value (validation standard MOV) stood at 101.7%; the “Autosampler (24h, 4°C) Accuracy [%]” value (validation standard ULOV) turned out to be 99.8%. The “Autosampler (72h, 4°C) Accuracy [%]” value (validation standard 2xLLOV) amounted to 99.4%; the “Autosampler (72h, 4°C) Accuracy [%]” value (validation standard LLOV) turned out to be 99.0%; the “Autosampler (72h, 4°C) Accuracy [%]” value (validation standard MOV) was 97.9%; the “Autosampler (72h, 4°C) Accuracy [%]” value (validation standard ULOV) was found to be 99.0%.
